The source made the active and inactive calls. How the calls were made is not given here.
Columns and labels:
[1] = target: T1, hERG (Kv11.1, KCNH2) (Homo sapiens, UniProt Q12809); test: in vitro
Description: MMV: Malaria Box compounds were tested for inhibition of the human ether a go-go related gene (hERG), Kv11.1 channel, using IonWorks 384-well patch clamp electrophysiology at 1.1uM (3 independent assay plates up to 12 cells per concentration).

[2] = target: T1, hERG (Kv11.1, KCNH2); test: in vitro; remark: listed apart in the source
Description: MMV: Malaria Box compounds were tested for inhibition of the human ether a go-go related gene (hERG), Kv11.1 channel, using IonWorks 384-well patch clamp electrophysiology at 11.1uM (3 independent assay plates up to 12 cells per concentration).

T1 sequence (Q12809 whole entry): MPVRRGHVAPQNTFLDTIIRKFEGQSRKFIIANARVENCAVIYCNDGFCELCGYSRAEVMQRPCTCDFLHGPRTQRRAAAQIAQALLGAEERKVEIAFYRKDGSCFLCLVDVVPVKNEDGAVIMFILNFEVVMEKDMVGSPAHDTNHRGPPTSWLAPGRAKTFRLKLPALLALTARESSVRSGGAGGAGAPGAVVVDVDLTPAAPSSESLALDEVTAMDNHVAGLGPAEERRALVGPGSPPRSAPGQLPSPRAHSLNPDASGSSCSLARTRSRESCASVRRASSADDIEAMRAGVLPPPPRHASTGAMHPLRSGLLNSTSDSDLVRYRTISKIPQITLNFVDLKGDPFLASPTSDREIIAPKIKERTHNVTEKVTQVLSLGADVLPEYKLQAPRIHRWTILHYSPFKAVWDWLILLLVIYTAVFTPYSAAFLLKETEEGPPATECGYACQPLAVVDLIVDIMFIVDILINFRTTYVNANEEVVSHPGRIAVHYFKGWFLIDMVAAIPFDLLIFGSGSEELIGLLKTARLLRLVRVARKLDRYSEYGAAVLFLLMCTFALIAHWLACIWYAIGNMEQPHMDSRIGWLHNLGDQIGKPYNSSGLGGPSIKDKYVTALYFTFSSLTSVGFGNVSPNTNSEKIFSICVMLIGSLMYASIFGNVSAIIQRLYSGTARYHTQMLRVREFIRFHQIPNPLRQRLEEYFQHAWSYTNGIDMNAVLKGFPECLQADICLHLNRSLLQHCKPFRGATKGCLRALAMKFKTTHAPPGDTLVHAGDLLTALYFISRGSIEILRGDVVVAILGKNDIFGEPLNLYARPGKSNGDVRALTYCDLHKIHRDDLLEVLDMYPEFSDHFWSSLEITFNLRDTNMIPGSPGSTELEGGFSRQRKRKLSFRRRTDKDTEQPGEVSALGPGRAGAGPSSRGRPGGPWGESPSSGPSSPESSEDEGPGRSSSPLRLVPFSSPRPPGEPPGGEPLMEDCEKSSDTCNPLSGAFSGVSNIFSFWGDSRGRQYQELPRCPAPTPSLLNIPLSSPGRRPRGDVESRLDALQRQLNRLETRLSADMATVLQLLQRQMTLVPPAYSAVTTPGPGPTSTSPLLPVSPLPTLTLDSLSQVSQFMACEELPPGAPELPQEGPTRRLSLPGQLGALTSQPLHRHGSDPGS

| SMILES | inhibition at 1.1 µM [1] | inhibition at 11.1 µM [2] |
| --- | --- | --- |
| COc1ccccc1CNC(=O)CCn1c(=O)[nH]c2ccccc2c1=O | -6% | 19% (inactive) |
| OC(Cn1nnc2ccccc21)Cn1c2ccc(Br)cc2c2cc(Br)ccc21 (centres undefined) | 21% | 17% (inactive) |
| O=C(Nc1ccc(Cl)cc1)N1CCN(c2ccc3nncn3n2)CC1 | 0% | 58% (active) |
| CN(C)c1ccc(-c2nc3cc(N)ccc3[nH]2)cc1 | 14% | 36% |
| Cc1ccc2cc3c(N)c4c(C)ccc(C)c4nc3nc2c1 | 16% | 60% (active) |
| O=C(CSc1ccc2nnc(-c3cccc(F)c3)n2n1)Nc1ccc2c(c1)OCO2 | 5% | 3% (inactive) |
| CCCCNCC(O)(c1ccc(Cl)cc1)c1ccc(Cl)cc1 | 30% | 95% (active) |
| CCCC(c1nnnn1C1CCCCC1)N1CCN(C(=O)c2ccco2)CC1 (centres undefined) | 3% | 52% (active) |
| Cc1ccc(CN2CCC(C(=O)Nc3ccc(-c4cc5ccccc5[nH]4)cc3)CC2)o1 | 9% | 88% (active) |
| CCn1c(SCC(=O)Nc2cc(C(F)(F)F)ccc2Cl)nc2ccccc2c1=O | -1% | 34% |
| O=C(Nc1ccsc1C(=O)NC1CCCCC1)c1ccc(F)cc1 | -3% | 3% (inactive) |
| O=C(Nc1ccc(Cl)cc1C(=O)Nc1ccncc1)c1ccc(Cl)cc1Cl | 4% | 39% |
| CC(C)(C)c1ccc(C(=O)Nc2c3c(nn2-c2cccc(Cl)c2)CSC3)cc1 | 4% | 0% (inactive) |
| COc1ccc(N2CCN(C(CNC(=O)CC(C)(C)C)c3ccc4c(c3)OCO4)CC2)cc1 (centres undefined) | -5% | 24% (inactive) |
| COc1ccc(C2N(C)c3ccccc3N2C)cc1 | -13% | -5% (inactive) |
| COc1cccc(C(=O)NC(c2ccc(C)cc2)c2cc(Cl)c3cccnc3c2O)c1 (centres undefined) | 4% | -6% (inactive) |
| CCOc1ccc(/C=C/c2nc(=O)c3ccccc3o2)cc1 | 1% | 19% (inactive) |
| O=C(Nc1ccccc1O)c1ccc(-c2ccc(Cl)cc2Cl)o1 | 1% | 3% (inactive) |
| O=C(Nc1ccc(F)c(Cl)c1)Nc1ccc(Cl)c(Cl)c1 | -11% | -3% (inactive) |

| SMILES | inhibition at 1.1 µM [1] | inhibition at 11.1 µM [2] |
| --- | --- | --- |
| CCOC(=O)C1(Cc2ccccc2)CCN(Cc2cccc(OC)c2O)CC1 | 18% | 80% (active) |
| O=C(Cc1ccccc1)NC(c1ccc(Cl)cc1)c1c(O)ccc2ccccc12 (centres undefined) | -2% | -1% (inactive) |
| Oc1ccc(C(=C(Cl)Cl)c2ccc(O)cc2)cc1 | 7% | 15% (inactive) |
| CCOc1ccc(-c2nc(NC(=O)c3cccc(S(C)(=O)=O)c3)sc2C)cc1 | 3% | 29% |
| COc1ccc(C(=O)NC(c2ccccc2Cl)c2cc(Cl)c3cccnc3c2O)cc1 (centres undefined) | 9% | 7% (inactive) |
| COc1ccc(CN2CCN(Cc3ccccc3)CC2)c(O)c1 | 15% | 66% (active) |
| CCCCCCc1cc(O)c2c3c(c(=O)oc2c1)CCC(C)C3 (centres undefined) | -5% | -7% (inactive) |
| COc1ccccc1N1CCN(C(CNS(=O)(=O)c2ccc(Cl)cc2)c2cccnc2)CC1 (centres undefined) | 4% | 44% |
| CCCc1c(C)nc2ccc(Br)cc2c1O | 1% | 2% (inactive) |
| CCCc1c(C)nc2ccccc2c1O | -17% | 7% (inactive) |
| OC1CCCCC1C1(NC(=S)Nc2ccccc2)CCCCC1 (centres undefined) | 26% | 51% (active) |
| COc1ccc(C(=O)C2CC2c2ccc(Cl)cc2)cc1 (centres undefined) | -6% | 13% (inactive) |
| CCN(CC)CCCNc1nc(-c2ccc(Cl)cc2)nc2ccccc12 | 8% | 94% (active) |
| CN1c2ccccc2N(C)C1c1ccc2c(c1)OCO2 | -1% | 17% (inactive) |
| O=C(NCC1Cc2cccc(-c3ccncc3)c2O1)c1csc2c1CCCC2 (centres undefined) | 13% | 61% (active) |
| c1ccc(Cn2c(N=Nc3c(Nc4ccccc4)ccc4ccccc34)nc3ccccc32)cc1 | -2% | -2% (inactive) |
| C=C(C)CCC(C)N1CCC(N2CCC(C(=O)NCCc3ccccc3)CC2)CC1 (centres undefined) | 8% | 71% (active) |
| Cc1ccc(S(=O)(=O)c2c(COC(=O)c3cccc(C)c3)c(-c3ccccc3)nn2C)cc1 | 4% | 12% (inactive) |
